According to PubChem BioAssay (NCI):
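Five compound concentrations were applied to cells in 96-well plates for 48 hours; endpoints were derived by simple linear interpolation of the resulting dose-response curve. GI50 is the concentration that inhibits growth by half. TGI: concentration producing complete growth inhibition.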

What was measured:
Experiment in all cases: DTP human tumour cell line panel, 48 h
[1] = tested on: IGROV1 ovarian
[2] = tested on: SF-295 CNS
[3] = tested on: NCI-H522 lung
[4] = tested on: HCT-116 colon
[5] = tested on: PC-3 prostate
[6] = tested on: HOP-62 NSCLC
[7] = tested on: CAKI-1 renal
[8] = tested on: NCI/ADR-RES ovarian
[9] = tested on: HOP-18 NSCLC

SMILES	GI50 [1] [µM]	TGI [1] [µM]	GI50 [2] [µM]	TGI [2] [µM]	GI50 [3] [µM]	TGI [3] [µM]	GI50 [4] [µM]	TGI [4] [µM]	GI50 [5] [µM]	TGI [5] [µM]	GI50 [6] [µM]	TGI [6] [µM]	GI50 [7] [µM]	TGI [7] [µM]	GI50 [8] [µM]	TGI [8] [µM]	TGI [9] [µM]
CCOc1c(C#N)c2c(N)ncnc2n1C1OC(CO)C(O)C1O (stereo not drawn)	0.761	2.54	4.63	> 100	8.18	39.9	0.881	3.27	2.77	> 31.7	5.01	26.5	3.13	55.9	4.51	> 100	–
CC[C@]12C=CCN3CC[C@@]4(c5ccc(OC)cc5N(C)[C@H]4[C@@](O)(C(=O)OC)[C@@H]1OC(=O)CCC(=O)N[C@H](Cc1c[nH]c4ccccc14)C(=O)OC)[C@@H]32	4.3	24.1	15.8	39.5	14.4	34.9	3.02	> 100	2.95	17	6.32	24.5	3.65	17	11.3	37.8	–
O=C(Nc1nc(-c2ccc(Cl)cc2)nc2c1sc(=S)n2-c1ccccc1)C(F)(F)F	3.9	14.3	1.71	4.01	4.72	39.8	2.63	8.04	8.95	71.4	2.83	7.98	4	16	3.58	19.3	–
CCOC(=O)c1cc(-c2ccc(OC)c(OC)c2)[nH]c1N/N=C/c1c(Cl)cccc1Cl	2.45	30.4	0.461	8.31	2.27	30	1.39	5.44	2.14	19	2.51	14.5	1.59	11.4	1.15	4.53	–
Nc1ccc2c(c1)Oc1c(F)c(F)cc3c(=O)c(C(=O)O)cn-2c13	–	> 100	–	–	–	> 100	–	> 100	–	–	–	> 100	–	> 100	–	–	> 100
CC(O)CN1c2ccccc2Sc2ccc(Cl)cc21 (stereo not drawn)	–	> 10	–	> 10	–	> 10	–	> 10	–	> 10	–	> 10	–	> 10	–	> 10	–
